Source: publication PMC5766630, “Non-estrogenic Xanthohumol Derivatives Mitigate Insulin Resistance and Cognitive Impairment in High-Fat Diet-induced Obese Mice” (Scientific Reports, 2018)

What was measured:
MCF-7 cells = experiment: MCF-7 cell proliferation, sulforhodamine B (SRB) assay; assay type: cell-based, human; details: 48 h exposure, vs vehicle control; for MCF-7 cell viability/proliferation at low concentrations: 0.001–1 µM
Procedure: The SRB assay has been used to study the effects of phytochemicals such as XN, DXN and 8-PN on cell proliferation of various cancer cell lines, including MCF-7 cells[91],[92]. SRB is a dye that binds to cellular proteins of adherent cells and the absorbance readings are a measure of the number of viable cells (cell mass) attached to the culture plate after incubation with the test compounds (samples) in comparison with vehicle control cells. The cell mass is then extrapolated as a measurement of cell viability and cell proliferation. Increased proliferation of MCF-7 cells is one of the measures of estrogenicity of phytochemicals. MCF-7 cells were plated at 10,000 cells/well in 96-well plates in DMEM medium containing 10% charcoal-stripped FBS and antibiotics. […] After incubation with the test compounds for 48 h, the cell culture medium was removed from each well of the 96-well plate and the cells were fixed for 1 h with 10% trichloroacetic acid. The cells on the plate were washed five with distilled water, air-dried, and then stained with SRB dye (0.4% w/v in 1% acetic acid). Excess dye was removed by washing the plate five times with 1% acetic acid. The plates were air-dried and the adsorbed dye was solubilized in 10 mM Tris buffer for 5 min on a shaker before reading the optical density (OD) at 565 nm. The percentage cell viability/proliferation was calculated as follows: (ODSample−ODZeroblank)/(ODControl−ODZeroblank)×100. Mean values and the coefficient of variation (CV) from six replicate wells were calculated and a one-way ANOVA was used to compare statistical differences between treated and control cells, with p < 0.05 as the level of significance.

C2C12 cells = experiment: Seahorse OCR and ECAR measurements (mitochondrial uncoupling); assay type: cell-based, mouse; details: for Increase of OCR in the presence of oligomycin (uncoupled respiration): 5 µM compound after 1 μM oligomycin, compared to the baseline, five independent experiments; for ECAR after addition of compound: 5 µM final concentration, after oligomycin 1 μM
Procedure: OCR and ECAR measurements were performed with a Seahorse XF 24 Analyzer (Agilent Technologies, Inc., Santa Clara, CA, USA). C2C12 cells were plated in culture medium at a density of 40,000 cells per well in a 24-well plate. The cells were then allowed to adhere for 24 h (37 °C, 5% CO2). Prior to the assay, the cells were washed with freshly prepared running medium consisting of Seahorse XF Assay medium (Agilent Technologies, Inc., Santa Clara, CA, USA), 10 mM glucose and 1 mM sodium pyruvate. The pH of the medium was adjusted to 7.4 with 1 M NaOH. The cells were then equilibrated for one hour at 37 °C without CO2. […] To overcome this problem, the test compounds were first dissolved in ethanol and the resulting solution was diluted 100-fold in treatment medium (9 parts XF media and 1 part 10% FBS media) which was added directly to cells. The treatment medium contained 1% FBS and after a further 10-fold dilution into the media in wells, only 0.1% FBS was present during OCR and ECAR measurements. The final concentrations in the wells were: 1 μM for oligomycin, and 5 μM for XN, DXN or TXN. The concentration of oligomycin and the cell density used were selected based on preliminary experiments. Ethanol was added to the control wells not to exceed a final concentration of 0.1% (vehicle control). OCR and ECAR were measured at 9-min intervals.
Seahorse data: to show a consistent baseline, OCR values (in pmol/min/mg protein) and ECAR values (in mpH/min/mg protein) for each value were divided, prior to statistical analysis, by the average of the four pre oligomycin treatment values (0, 8, 17, and 25 min) for the corresponding well and are shown as % pre oligomycin values. To account for repeated measures within wells over time, we utilized a repeated-measures-in-time design using ANOVA procedures in PROC MIXED (SAS). Fixed effects in the model were treatment (control, 5 μM XN, 5 μM DXN, and 5 μM TXN for the compound study), time (0, 8, 17, 25, 34, 43, 52, 60, 69, 78, 86, and 95 min), and their interaction. The random effect was the experiment (5 experiments for the compound study). To account for repeated measures within wells over time, a first order homogeneous variance-covariance matrix [AR(1)] was fitted for each well. Using the ESTIMATE statement, a priori contrasts were constructed by comparing the changes in compound treated cells from the last two time points prior to compound treatment (average 52 and 60 min) to the changes in control cells during the same time-period. This was carried out for each compound and dosage for 69, 78, 86, and 95 min separately and for all four time points combined. Results are shown in the text and the graphs as least squares means and their corresponding SEM (standard error of mean). […]

[1] = system: C2C12 skeletal muscle myoblasts; experiment: MTT cell viability assay, C2C12; assay type: cell-based, mouse; details: 1 h exposure, up to 50 μM
Procedure: For cell viability experiments using the MTT assay, mouse C2C12 skeletal muscle myoblasts (ATCC; Manassas, VA, USA) and the human hepatocyte cell line, HepG2 (ATCC; Manassas, VA, USA), were plated in 96-well plates at a density of 4,000 to 10,000 cells per well in 200 μL of DMEM medium supplemented with 10% FBS, 1% glutamine, 1 mM of sodium pyruvate, 100 units/mL penicillin, and 100 μg/mL streptomycin. After incubating 48 h, the medium was removed and the cells were treated with fresh solutions of various concentrations of XN, DXN or TXN in phenol red-free DMEM plus supplements. The final concentrations of XN, DXN, TXN were 1, 2, 5, 8, 10, 25, or 50 μM, in quadruplicate wells. The plates were then incubated for 1 h (for C2C12) or 24 h for HepG2. After removing the medium, the cells were incubated for 2 h with a 0.5 mg/mL solution of MTT in phenol red-free culture medium. After removing the medium and adding a solution of acidified isopropanol to each well, the absorbance of each well was measured at 570 nm by using a spectrometer (SpectraMax 190, Molecular Devices, Sunnyvale, CA, USA). Cell viability of compound-treated cells was calculated as % absorbance of vehicle-treated control cells (Supplementary Fig. S1a and S1b).

SMILES | MCF-7 cell viability/proliferation at 10 µM (MCF-7 cells) | MCF-7 cell viability/proliferation at low concentrations (MCF-7 cells) | Increase of OCR in the presence of oligomycin (uncoupled respiration) (C2C12 cells) | ECAR after addition of compound (C2C12 cells) | C2C12 cell viability (MTT) [1]
COc1cc(O)c(CC=C(C)C)c(O)c1C(=O)CCc1ccc(O)cc1 [DXN, α,β-Dihydroxanthohumol] | significantly decreased | did not produce a significant increase | 28.7 ± 6.9% | significant decrease | did not significantly affect cell viability
COc1cc(O)c(CCC(C)C)c(O)c1C(=O)CCc1ccc(O)cc1 [TXN, tetrahydroxanthohumol] | significantly decreased | did not produce a significant increase | 56.8 ± 6.9% | significant decrease | did not significantly affect cell viability
COc1cc(O)c(CC=C(C)C)c(O)c1C(=O)/C=C/c1ccc(O)cc1 [XN, 3′-[3,3-dimethylallyl]-2′,4′,4-trihydroxy-6′-methoxychalcone] | significantly decreased | did not produce a significant increase | – | significant decrease | did not significantly affect cell viability
